# According to patent US20230117034A1, “PYRAZOLOTRIAZINES” (Bayer Aktiengesellschaft, priority 2019, published 2023):
# Molecular target: CDK12/CycK (Homo sapiens, UniProt Q9NYV4)
# Test: CDK12/CycK high ATP kinase assay (TR-FRET, 2 mM ATP)
# Assay type: biochemical
# Conditions: 2 mM ATP (high ATP); median; read-out: CDK12/CyclinK, 2 mM ATP (high ATP), IC50-[mol/l] (median)
# Method in brief: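 His-tagged human CDK12/CycK (~0.75 nM) pre-incubated 15 min with compound, then 60 min at 22 °C with 2 mM ATP and 1 µM biotinylated peptide (HEPES pH 7.5, 20 mM MgCl2). EDTA stop; phospho-Ser62 antibody/Eu anti-rabbit and streptavidin-XL665 TR-FRET, 665/620 nm ratio normalised to give IC50.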
# Sequence of CDK12/CycK (Q9NYV4 with tags, fused parts or gaps): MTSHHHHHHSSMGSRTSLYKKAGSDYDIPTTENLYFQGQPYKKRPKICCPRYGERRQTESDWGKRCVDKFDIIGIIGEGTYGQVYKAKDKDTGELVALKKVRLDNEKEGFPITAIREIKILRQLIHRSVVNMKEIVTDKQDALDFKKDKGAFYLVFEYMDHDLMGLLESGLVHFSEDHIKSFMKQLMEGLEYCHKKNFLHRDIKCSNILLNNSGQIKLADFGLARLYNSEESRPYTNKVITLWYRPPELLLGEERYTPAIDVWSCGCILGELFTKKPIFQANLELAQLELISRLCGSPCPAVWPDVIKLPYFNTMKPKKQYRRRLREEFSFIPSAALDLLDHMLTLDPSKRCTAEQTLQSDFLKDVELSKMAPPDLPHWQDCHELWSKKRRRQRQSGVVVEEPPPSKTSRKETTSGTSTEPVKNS
# Sequence of CDK12/CycK (O75909 1-300 partner limits assumed): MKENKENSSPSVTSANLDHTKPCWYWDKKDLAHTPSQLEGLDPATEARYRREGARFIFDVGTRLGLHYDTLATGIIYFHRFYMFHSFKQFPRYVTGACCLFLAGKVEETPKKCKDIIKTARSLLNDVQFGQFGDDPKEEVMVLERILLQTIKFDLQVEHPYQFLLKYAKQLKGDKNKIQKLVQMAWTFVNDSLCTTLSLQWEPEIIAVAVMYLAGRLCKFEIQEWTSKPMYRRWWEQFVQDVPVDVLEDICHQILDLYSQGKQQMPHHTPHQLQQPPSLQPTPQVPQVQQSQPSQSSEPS
row,Compound,IC50
1,"Brc1cnn2c(NCc3nc4ccccc4[nH]3)nc(N3C[C@H]4CC[C@@H]3CO4)nc12 (single isomer, unassigned; enantiomer 2) [Example 391, N-[(1H-benzimidazol-2-yl)methyl]-8-bromo-2-{[1R or S-(1R*,4R*)]-2-oxa-5-azabicyclo[2.2.2]octan-5-yl}pyrazolo[1,5-a][1,3,5]triazin-4-amine (Enantiomer 2)]",6.7 µM
2,"Clc1cc2nc(CNc3nc(N4CC5CCC(C4)N5)nc4c(C5CC5)cnn34)[nH]c2cc1Cl [Example 324, 8-cyclopropyl-2-(3,8-diazabicyclo[3.2.1]octan-3-yl)-N-[(5,6-dichloro-1H-benzimidazol-2-yl)methyl]pyrazolo[1,5-a][1,3,5]triazin-4-amine]",0.859 µM
3,"CN(CC(C)(C)O)c1nc(NCc2nc3cc(C(F)(F)F)ccc3[nH]2)n2ncc(C3CC3)c2n1 [Example 323, 1-{[8-cyclopropyl-4-({[5-(trifluoromethyl)-1H-benzimidazol-2-yl]methyl}amino)pyrazolo[1,5-a][1,3,5]triazin-2-yl](methyl)amino}-2-methylpropan-2-ol]",2.85 µM
4,"CCNc1nc(NCc2nc(-c3ccc(C)cc3)c[nH]2)n2ncc(Br)c2n1 [Example 26, 8-bromo-N^2-ethyl-N^4-{[4-(4-methylphenyl)-1H-imidazol-2-yl]methyl}pyrazolo[1,5-a][1,3,5]triazine-2,4-diamine]",3.21 µM
5,"Fc1cccc2[nH]c(CNc3nc(N4CCOCC4)nc4c(Cl)cnn34)nc12 [Example 361, 8-chloro-N-[(4-fluoro-1H-benzimidazol-2-yl)methyl]-2-(morpholin-4-yl)pyrazolo[1,5-a][1,3,5]triazin-4-amine]",1.43 µM
6,"CN(CC(C)(C)O)c1nc(NCc2nc3c(F)c(F)ccc3[nH]2)n2ncc(Cl)c2n1 [Example 359, 1-[(8-chloro-4-{[(4,5-difluoro-1H-benzimidazol-2-yl)methyl]amino}pyrazolo[1,5-a][1,3,5]triazin-2-yl)(methyl)amino]-2-methylpropan-2-ol]",2.09 µM
7,"FC(F)(F)Oc1ccc2[nH]c(CNc3nc(N4C[C@H]5CC[C@@H](C4)N5)nc4c(Br)cnn34)nc2c1 [Example 382, 8-bromo-2-[(1R,5S)-3,8-diazabicyclo[3.2.1]octan-3-yl]-N-{[5-(trifluoromethoxy)-1H-benzimidazol-2-yl]methyl}pyrazolo[1,5-a][1,3,5]triazin-4-amine]",0.823 µM
8,"Cc1ccnc2[nH]c(CNc3nc(N4CCN(C)CC4)nc4c(C(C)C)cnn34)nc12 [Example 32, N-[(7-methyl-3H-imidazo[4,5-b]pyridin-2-yl)methyl]-2-(4-methylpiperazin-1-yl)-8-(propan-2-yl)pyrazolo[1,5-a][1,3,5]triazin-4-amine]",18.5 µM
9,"C[C@H]1CN(C)CCN1c1nc(NCc2nc3c(F)cccc3[nH]2)n2ncc(C(F)(F)F)c2n1 [Example 388, 2-[(2S)-2,4-dimethylpiperazin-1-yl]-N-[(4-fluoro-1H-benzimidazol-2-yl)methyl]-8-(trifluoromethyl)pyrazolo[1,5-a][1,3,5]triazin-4-amine]",6.84 µM
10,"CC[C@@H](CO)Nc1nc(NCc2nc3ccccc3[nH]2)n2ncc(Br)c2n1 [Example 367, (2S)-2-[(4-{[(1H-benzimidazol-2-yl)methyl]amino}-8-bromopyrazolo[1,5-a][1,3,5]triazin-2-yl)amino]butan-1-ol]",2.93 µM
11,"Brc1cnn2c(NCc3nc4ccccc4[nH]3)nc(N3CC4CCC3CO4)nc12 (stereo not drawn) [Example 352, N-[(1H-benzimidazol-2-yl)methyl]-8-bromo-2-(2-oxa-5-azabicyclo[2.2.2]octan-5-yl)pyrazolo[1,5-a][1,3,5]triazin-4-amine]",5.25 µM
12,"CN(CC(C)(C)O)c1nc(NCc2nc3c(F)cccc3[nH]2)n2ncc(Cl)c2n1 [Example 366, 1-[(8-chloro-4-{[(4-fluoro-1H-benzimidazol-2-yl)methyl]amino}pyrazolo[1,5-a][1,3,5]triazin-2-yl)(methyl)amino]-2-methylpropan-2-ol]",1.81 µM
13,"CN(c1nc(NCc2nc3ccccc3[nH]2)n2ncc(Br)c2n1)[C@H]1C[C@H](O)C1 [Example 365, trans-3-[(4-{[(1H-benzimidazol-2-yl)methyl]amino}-8-bromopyrazolo[1,5-a][1,3,5]triazin-2-yl)(methyl)amino]cyclobutan-1-ol]",5.85 µM
14,"CC[C@H](CO)Nc1nc(NCc2nc3ccccc3[nH]2)n2ncc(Br)c2n1 [Example 368, (2R)-2-[(4-{[(1H-benzimidazol-2-yl)methyl]amino}-8-bromopyrazolo[1,5-a][1,3,5]triazin-2-yl)amino]butan-1-ol]",4.84 µM
15,"Fc1cc2nc(CNc3nc(N4C[C@H]5CC[C@@H](C4)N5)nc4c(C5CC5)cnn34)[nH]c2cc1Cl [Example 328, N-[(6-chloro-5-fluoro-1H-benzimidazol-2-yl)methyl]-8-cyclopropyl-2-[(1R,5S)-3,8-diazabicyclo[3.2.1]octan-3-yl]pyrazolo[1,5-a][1,3,5]triazin-4-amine]",1.66 µM
16,"CN1CCC(Oc2nc(NCc3nc4ccccc4[nH]3)n3ncc(Br)c3n2)CC1 [Example 389, N-[(1H-benzimidazol-2-yl)methyl]-8-bromo-2-[(1-methylpiperidin-4-yl)oxy]pyrazolo[1,5-a][1,3,5]triazin-4-amine]",> 20 µM
17,"CN1CCN(c2nc(NCc3nc4cc(OC(F)(F)F)ccc4[nH]3)n3ncc(Br)c3n2)CC1 [Example 377, 8-bromo-2-(4-methylpiperazin-1-yl)-N-{[5-(trifluoromethoxy)-1H-benzimidazol-2-yl]methyl}pyrazolo[1,5-a][1,3,5]triazin-4-amine]",5.09 µM
18,"CN1CCN(c2nc(NCc3nc4c(OC(F)(F)F)cccc4[nH]3)n3ncc(Br)c3n2)CC1 [Example 376, 8-bromo-2-(4-methylpiperazin-1-yl)-N-{[4-(trifluoromethoxy)-1H-benzimidazol-2-yl]methyl}pyrazolo[1,5-a][1,3,5]triazin-4-amine]",> 20 µM
19,"FC(F)(F)Oc1cccc2[nH]c(CNc3nc(N4CCOCC4)nc4c(Br)cnn34)nc12 [Example 375, 8-bromo-2-(morpholin-4-yl)-N-{[4-(trifluoromethoxy)-1H-benzimidazol-2-yl]methyl}pyrazolo[1,5-a][1,3,5]triazin-4-amine]",4.56 µM
20,"CC[C@H](COC)Nc1nc(NCc2nc3ccccc3[nH]2)n2ncc(Br)c2n1 [Example 369, N4-[(1H-benzimidazol-2-yl)methyl]-8-bromo-N2-[(2R)-1-methoxybutan-2-yl]pyrazolo[1,5-a][1,3,5]triazine-2,4-diamine]",> 20 µM
21,"Brc1cnn2c(NCc3nc4ccccc4[nH]3)nc(N3C[C@H]4CC[C@@H]3CN4)nc12 (single isomer, unassigned) [Example 335, N-[(1H-benzimidazol-2-yl)methyl]-8-bromo-2-{[1R or S-(1R*,4R*)]-2,5-diazabicyclo[2.2.2]octan-2-yl}pyrazolo[1,5-a][1,3,5]triazin-4-amine]",6.65 µM
22,"Brc1cnn2c(NCc3nc4ccccc4[nH]3)nc(N3CCN4CCC3C4)nc12 (stereo not drawn) [Example 350, N-[(1H-benzimidazol-2-yl)methyl]-8-bromo-2-(1,4-diazabicyclo[3.2.1]octan-4-yl)pyrazolo[1,5-a][1,3,5]triazin-4-amine]",7.8 µM
23,"Cc1cc2nc(CNc3nc(N4CCOCC4)nc4c(C5CC5)cnn34)[nH]c2cc1C [Example 320, 8-cyclopropyl-N-[(5,6-dimethyl-1H-benzimidazol-2-yl)methyl]-2-(morpholin-4-yl)pyrazolo[1,5-a][1,3,5]triazin-4-amine]",0.557 µM
24,"FC(F)(F)Oc1cccc2[nH]c(CNc3nc(N4C[C@H]5CC[C@@H](C4)N5)nc4c(Br)cnn34)nc12 [Example 381, 8-bromo-2-[(1R,5S)-3,8-diazabicyclo[3.2.1]octan-3-yl]-N-{[4-(trifluoromethoxy)-1H-benzimidazol-2-yl]methyl}pyrazolo[1,5-a][1,3,5]triazin-4-amine]",5.91 µM
25,"Fc1cccc2[nH]c(CNc3nc(N4CC5CCC(C4)N5)nc4c(Cl)cnn34)nc12 [Example 363, 8-chloro-2-(3,8-diazabicyclo[3.2.1]octan-3-yl)-N-[(4-fluoro-1H-benzimidazol-2-yl)methyl]pyrazolo[1,5-a][1,3,5]triazin-4-amine]",3.31 µM
26,"Brc1cnn2c(NCc3nc4ccccc4[nH]3)nc(N3C[C@H]4CC[C@@H]3CO4)nc12 (single isomer, unassigned) [Example 383, N-[(1H-benzimidazol-2-yl)methyl]-8-bromo-2-{[1R or S-(1R*,4R*)]-2-oxa-5-azabicyclo[2.2.2]octan-5-yl}pyrazolo[1,5-a][1,3,5]triazin-4-amine]",4.97 µM
27,"FC(F)(F)c1ccc2[nH]c(CNc3nc(N4CCOCC4)nc4c(C5CC5)cnn34)nc2c1 [Example 322, 8-cyclopropyl-2-(morpholin-4-yl)-N-{[5-(trifluoromethyl)-1H-benzimidazol-2-yl]methyl}pyrazolo[1,5-a][1,3,5]triazin-4-amine]",1.21 µM
28,"CN(c1nc(NCc2nc3ccccc3[nH]2)n2ncc(Br)c2n1)[C@H]1C[C@@H](O)C1 [Example 364, cis-3-[(4-{[(1H-benzimidazol-2-yl)methyl]amino}-8-bromopyrazolo[1,5-a][1,3,5]triazin-2-yl)(methyl)amino]cyclobutan-1-ol]",6.67 µM
29,"CN1CCCN(c2nc(NCc3nc4ccccc4[nH]3)n3ncc(Br)c3n2)CC1 [Example 390, N-[(1H-benzimidazol-2-yl)methyl]-8-bromo-2-(4-methyl-1,4-diazepan-1-yl)pyrazolo[1,5-a][1,3,5]triazin-4-amine]",> 20 µM
30,"CN1CCN(c2nc(NCc3nc4c(F)c(F)ccc4[nH]3)n3ncc(Cl)c3n2)CC1 [Example 358, 8-chloro-N-[(4,5-difluoro-1H-benzimidazol-2-yl)methyl]-2-(4-methylpiperazin-1-yl)pyrazolo[1,5-a][1,3,5]triazin-4-amine]",11.6 µM
